Test results as given in patent publication US9433592B2, “Pharmaceutical or veterinary antiviral compositions” (priority 2009, dated 2016).
Entries after “also recorded” stand apart in the source; their conditions may differ.

Experiments:
H3N2 A/Moscow/10/99 = format: cell-based, influenza A virus
[1] = test system: H5N2 A/Finch/England/2051/94; format: cell-based, influenza A virus
influenza A viruses = assay: Selectivity index summary (ratio between CC50 and EC50) on the viruses; format: cell-based, influenza A virus; conditions: summary over the viruses tested (FIG. 4)
[2] = test system: H1N1 A/New Caledonia/20/99; format: cell-based, influenza A virus
[3] = test system: pandemic H1N1 virus (A/California/07/2009); format: cell-based, influenza A virus
H5N1 A/Turkey/582/2006 = format: cell-based, influenza A virus
in vitro = conditions: human
[4] = test system: H7N1 A/Chicken/Italy/2076/99; format: cell-based, influenza A virus

Structure (SMILES)	inhibition of the infectious cycle of H3N2 virus (H3N2 A/Moscow/10/99)	inhibition of the infectious cycle of H5N2 virus [1]	inhibitor class by selectivity index (SI = CC50/EC50) (influenza A viruses)	inhibition of the infectious cycle of H1N1 virus [2]	antiviral activity on pandemic H1N1 virus [3]	inhibition of the infectious cycle of H5N1 virus (H5N1 A/Turkey/582/2006)	CC50 (in vitro)	inhibition of the infectious cycle of low-MOI H7N1 virus [4]	inhibition of the infectious cycle of low-MOI H1N1 virus [2]	inhibition of the infectious cycle of low-MOI pandemic H1N1 virus [3]
COc1ccc(OC)c(C(O)CNC(=O)CN)c1.Cl (racemic) [midodrine, Acetamide, 2-amino-N-[2-(2,5-dimethoxyphenyl)-2-hydroxyethyl]-monohydrochloride, (±)-]	inhibits the infectious cycle of all the viruses tested	inhibits the infectious cycle of all the viruses tested	moderate (a moderate inhibitor has an SI between 10 and 50)	inhibits the infectious cycle of all the viruses tested	characterized by antiviral activity; also recorded: inhibits the infectious cycle of all the viruses tested	inhibits the infectious cycle of all the viruses tested				
CCN[C@H]1CN(CCCOC)S(=O)(=O)c2sc(S(N)(=O)=O)cc21 [brinzolamide, (R)-(+)-4-Ethylamino-2-(3-methoxypropyl)-3,4-dihydro-2H-thieno[3,2-e]-1,2-thiazine-6-sulfonamide-1,1-dioxide]	inhibits primarily the infectious cycle				do not seem to have an impact		≥ 666 µM	inhibits primarily the infectious cycle	inhibits primarily the infectious cycle	
Cc1nccc2c1[nH]c1cc(O)ccc12 [harmol, 1-Methyl-9H-beta-carbolin-7-ol]	inhibits the infectious cycle	inhibits the infectious cycle			characterized by antiviral activity	inhibits the infectious cycle	95 µM			inhibits the infectious cycle
C1COC(NC(C2CC2)C2CC2)=N1 [rilmenidine]	inhibits the infectious cycle	inhibits the infectious cycle		inhibits the infectious cycle	do not seem to have an impact		1120 µM			
